Patent US20060148858A1, “1, 2-Azole derivatives with hypoglycemic and hypolipidemic activity” (priority 2002, published 2006)
Like-named read-outs stand apart in the source and are kept apart here.

Legend:
PPARδ-RXRα heterodimer = biological target: T1, PPARδ-RXRα heterodimer (Homo sapiens, UniProt Q03181); assay: PPARδ-RXRα heterodimer ligand activity, luciferase reporter in COS-1 transformant (Test Example 4); assay type: cell-based; conditions: COS-1 transformant (hPPARδ, hRXRα, reporter), 36-48 hours, concentration for 50% of the maximum fold induction
T1 construct: expressed in transfected cells; host or cells: COS-1
T1 sequence (Q03181 1-441): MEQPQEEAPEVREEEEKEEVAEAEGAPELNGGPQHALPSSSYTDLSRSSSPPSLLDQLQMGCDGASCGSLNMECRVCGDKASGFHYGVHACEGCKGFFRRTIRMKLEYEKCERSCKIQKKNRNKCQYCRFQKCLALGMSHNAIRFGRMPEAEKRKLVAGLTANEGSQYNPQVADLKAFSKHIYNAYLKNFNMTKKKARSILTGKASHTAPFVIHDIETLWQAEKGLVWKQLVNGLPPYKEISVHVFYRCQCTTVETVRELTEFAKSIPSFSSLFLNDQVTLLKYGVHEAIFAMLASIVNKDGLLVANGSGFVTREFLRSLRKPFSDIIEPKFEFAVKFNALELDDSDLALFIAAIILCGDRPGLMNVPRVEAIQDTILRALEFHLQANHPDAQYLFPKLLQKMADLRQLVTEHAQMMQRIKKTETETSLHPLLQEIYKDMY
T1 sequence (P19793 1-462 partner): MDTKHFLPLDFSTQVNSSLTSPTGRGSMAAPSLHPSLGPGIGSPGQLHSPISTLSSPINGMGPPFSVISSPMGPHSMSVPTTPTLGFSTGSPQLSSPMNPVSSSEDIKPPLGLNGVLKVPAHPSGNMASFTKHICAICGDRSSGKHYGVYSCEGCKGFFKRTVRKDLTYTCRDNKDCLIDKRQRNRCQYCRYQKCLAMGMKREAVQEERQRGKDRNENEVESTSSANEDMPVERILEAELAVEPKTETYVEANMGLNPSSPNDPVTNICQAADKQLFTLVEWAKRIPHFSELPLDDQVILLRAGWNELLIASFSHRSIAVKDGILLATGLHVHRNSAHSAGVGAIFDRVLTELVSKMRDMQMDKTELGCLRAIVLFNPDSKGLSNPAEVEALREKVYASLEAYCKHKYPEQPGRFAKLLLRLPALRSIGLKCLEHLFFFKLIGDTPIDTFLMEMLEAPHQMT
Experimental: The transformant obtained in Reference Example 9a was suspended in DMEM medium (produced by Life Technologies, Inc., USA) containing 0.1% fatty acid-free bovine serum albumin (BSA) (produced by Wako Pure Chemical Industries, Ltd.), and inoculate to each well of a 96-well white plate (produced by Corning Costar Corporation, USA) by 80 μl at 1×10^4 cells/well. Then the test compound (20 μl) was added and cultured at 37° C. under 5% CO2 for 36-48 hours. After removing the medium from the 96-well white plate, 40 μl of PIKKAGENE LT 7.5 (produced by Wako Pure Chemical Industries, Ltd.) diluted twice with HBSS (HANKS' BALANCED SALT SOLUTION)(produced by BIO WHITTAKER Inc., USA), was added. After stirring, the luciferase activity was determined using 1420 ARVO Multilabel Counter (produced by PerkinElmer Inc., USA).
A fold induction was calculated based on the luciferase activity of each test compound by taking the luciferase activity in the non-treatment group as 1. The values of the test compound concentration and the fold induction were analyzed using PRISM (produced by GraphPad Software Inc. USA) to calculate the EC50 values, the effective concentration of a test compound for 50% of the maximum fold induction.
COS-1 cells were inoculated to a 150 cm^2 cell culture flask (produced by Corning Costar Corporation, USA) at the density of 5×10^6 cells/50 ml, and cultured at 37° C. under 5% CO2 conditions for 24 hours. Subsequently, a DNA was introduced into the cell under the condition shown below using Lipofectamine (produced by Invitrogen, USA).
First, Lipofectamine (125 μl), PLUS Reagent (100 μl, produced by Invitrogen, USA), plasmid pMCMVneo-hPPARδ (2.5 μg) obtained in Reference Example 3a, plasmid pMCMVneo-hRXRα (2.5 μg) obtained in Reference Example 4a and reporter plasmid pGL3-4ERPP-TK neo (5 μg) obtained in Reference Example 5a, and pRL-tk (5 μg, produced by Promega, USA) were mixed with opti-MEM (5 ml, produced by Invitrogen, USA) to give a transfection mixture.
Then, the above-mentioned transfection mixture and opti-MEM (20 ml) were added to COS-1 cells washed with opti-MEM, and the cells were cultured at 37° C. under 5% CO2 conditions for 3 hours. DMEM medium (25 ml, produced by Life Technologies, Inc., USA) containing 0.1% fatty acid-free bovine serum albumin (BSA) (produced by Wako Pure Chemical Industries, Ltd.) was added to the obtained COS-1 cells, and the cells were cultured at 37° C. under 5% CO2 conditions for 18-24 hours to give a transformant.

KKAY mice = assay: Hypoglycemic and hypolipidemic actions in mice (Test Example 1); assay type: in vivo; conditions: Mus musculus, po, 96 h, 0.005% in powdery diet, four days, non-treated group taken as 100%
Experimental: Test compounds were mixed in a powdery diet (CE-2, Japan Clea) at the concentration of 0.005%, and freely given to KKAY mice (9 to 12 weeks old, 5 mice in a group), a model of obese and non-insulin dependent diabetes (type 2 diabetes), for four days. During this period, water was given freely. Blood was sampled from orbital venous plexus, and glucose and triglyceride levels in plasma separated from blood were determined enzymatically using L type Wako Glu2 (Wako Pure Chemical Industries, Ltd.) or L type Wako TG·H (Wako Pure Chemical Industries, Ltd.), respectively.
In the table, “hypoglycemic action (%)” means the rate of decrease (%) in the blood glucose level of the treated group when the blood glucose level of the non-treated group is taken as 100%. In addition, the “hypolipidemic action (%)” means the rate of decrease (%) in the blood triglyceride level of the treated group when the blood triglyceride level of the non-treated group is taken as 100%.

[1] = rate of decrease in blood glucose level, read-out: Hypoglycemic action (%)
[2] = rate of decrease in blood triglyceride level, read-out: Hypolipidemic action (%)

Row | Compound | melting point [°C] | EC50 (PPARδ-RXRα heterodimer) [nM] | inhibition in vivo at 0.005 % in diet (KKAY mice; [1]) [%] | inhibition in vivo at 0.005 % in diet (KKAY mice; [2]) [%]
1 | CC(C)c1nn(-c2ccc(C(F)(F)F)cn2)cc1CCCCOc1cccc(CC(=O)O)c1 [Example 51, [3-(4-{3-isopropyl-1-[5-(trifluoromethyl)-2-pyridinyl]-1H-pyrazol-4-yl}butoxy)phenyl]acetic acid] |  | 3.9 |  | 
2 | CC(C)c1nn(-c2ccc(C(F)(F)F)cn2)cc1CCCOc1ccccc1CC(=O)O [Example 179, [2-(3-{3-isopropyl-1-[5-(trifluoromethyl)-2-pyridyl]-1H-pyrazol-4-yl}propoxy)phenyl]acetic acid] | 132 to 133 |  | 34 | 37
3 | COc1cccc(CC(=O)O)c1OCCCCc1cn(-c2ccc(C(F)(F)F)cn2)nc1C(C)C [Example 180, [2-(4-{3-isopropyl-1-[5-(trifluoromethyl)-2-pyridyl]-1H-pyrazol-4-yl}butoxy)-3-methoxyphenyl]acetic acid] | 144 to 145 |  | 32 | 36
4 | CC(C)c1nn(-c2ccc(C(F)(F)F)cn2)cc1CCCOc1c(F)cccc1CC(=O)O [Example 207, [3-fluoro-2-(3-{3-isopropyl-1-[5-(trifluoromethyl)-2-pyridyl]-1H-pyrazol-4-yl}propoxy)phenyl]acetic acid] | 140 to 141 |  | 49 | 72
5 | COc1cccc(CC(=O)O)c1OCCCc1cn(-c2ncc(C(F)(F)F)cc2Cl)nc1C(C)C [Example 217, [2-(3-{1-[3-chloro-5-(trifluoromethyl)-2-pyridyl]-3-isopropyl-1H-pyrazol-4-yl}propoxy)-3-methoxyphenyl]acetic acid] | 96 to 97 |  | 34 | 18
6 | CCCC(C)c1nn(-c2ccc(C(F)(F)F)cn2)cc1CCCOc1c(C)cccc1CC(=O)O (stereo not drawn) [Example 222, [3-methyl-2-(3-{3-(1-methylbutyl)-1-[5-(trifluoromethyl)-2-pyridyl]-1H-pyrazol-4-yl}propoxy)phenyl]acetic acid] | 147 to 148 |  | 36 | 54
7 | CCc1cccc(CC(=O)O)c1OCCCc1cn(-c2ccc(C(F)(F)F)cn2)nc1C(CC)CC [Example 241, [3-ethyl-2-(3-{3-(1-ethylpropyl)-1-[5-(trifluoromethyl)-2-pyridinyl]-1H-pyrazol-4-yl}propoxy)phenyl]acetic acid] | 130 to 131 |  | 38 | 27
8 | CCc1cccc(CC(=O)O)c1OCCCc1cn(-c2ccc(Br)cn2)nc1C(C)C [Example 247, (2-{3-[1-(5-bromo-2-pyridinyl)-3-isopropyl-1H-pyrazol-4-yl]propoxy}-3-ethylphenyl)acetic acid] | 152 |  | 25 | 34
9 | calcium 2-[3-(3-{3-ethoxy-1-[4-(trifluoromethyl)phenyl]-1H-pyrazol-4-yl}propoxy)phenoxy]-2-methylpropanoate [Example 105] |  | 7.2 |  | 
10 | calcium 2-[3-(4-{3-ethoxy-1-[5-(trifluoromethyl)-2-pyridinyl]-1H-pyrazol-4-yl}butoxy)phenoxy]-2-methylpropanoate [Example 102] |  | 9.1 |  | 
11 | calcium 3-[3-ethoxy-1-(4-{3-ethoxy-1-[5-(trifluoromethyl)-2-pyridinyl]-1H-pyrazol-4-yl}butyl)-1H-pyrazol-4-yl]propanoate [Example 110] |  | 4.6 |  | 

Further lines, with some results ahead:

Row | melting point [°C] | Compound | EC50 (PPARδ-RXRα heterodimer) [nM] | inhibition in vivo at 0.005 % in diet (KKAY mice; [1]) [%] | inhibition in vivo at 0.005 % in diet (KKAY mice; [2]) [%]
12 | 102 to 103 | CCCc1nn(-c2ccc(C(F)(F)F)cn2)cc1CCCOc1c(CC(=O)O)cccc1C(C)C [Example 359, [3-isopropyl-2-(3-{3-propyl-1-[5-(trifluoromethyl)-2-pyridinyl]-1H-pyrazol-4-yl}propoxy)phenyl]acetic acid] |  |  | 
13 | 127 to 128 | COc1cccc(CC(=O)O)c1OCCCc1cn(-c2cc(C(F)(F)F)ccn2)nc1C(C)C [Example 363, [2-(3-{3-isopropyl-1-[4-(trifluoromethyl)-2-pyridinyl]-1H-pyrazol-4-yl}propoxy)-3-methoxyphenyl]acetic acid] |  |  | 
14 | 95 to 97 | COc1cccc(CC(=O)O)c1OCCCc1cn(-c2cccc(C(F)(F)F)n2)nc1C(C)C [Example 365, [2-(3-{3-isopropyl-1-[6-(trifluoromethyl)-2-pyridinyl]-1H-pyrazol-4-yl}propoxy)-3-methoxyphenyl]acetic acid] |  |  | 
15 | 131 to 132 | COc1cccc(CC(=O)O)c1OCCCc1cn(-c2ccc(C(F)(F)F)nn2)nc1C(C)(C)C [Example 366, [2-(3-{3-tert-butyl-1-[6-(trifluoromethyl)pyridazin-3-yl]-1H-pyrazol-4-yl}propoxy)-3-methoxyphenyl]acetic acid] |  |  | 
16 | 112 to 113 | Cc1cccc(CC(=O)O)c1OCCCc1cn(-c2ccc(Cl)cn2)nc1C(C)(C)C [Example 371, (2-{3-[3-tert-butyl-1-(5-chloropyridin-2-yl)-1H-pyrazol-4-yl]propoxy}-3-methylphenyl)acetic acid] |  |  | 
17 | 129 to 130 | Cc1nn(-c2ccccn2)cc1COc1ccc(CCC(=O)O)cc1 [Example 372, 3-{4-[3-methyl-1-(2-pyridinyl)-1H-pyrazol-4-ylmethoxy]phenyl}propionic acid] |  |  | 
18 | 106 to 107 | COc1ccc(OC(C)(C)C(=O)O)cc1OCCCc1cn(-c2ccc(C(F)(F)F)cn2)nc1C(C)C [Example 376, 2-[3-(3-{3-isopropyl-1-[5-(trifluoromethyl)-2-pyridinyl]-1H-pyrazol-4-yl}propoxy)-4-methoxyphenoxy]-2-methylpropanoic acid] |  |  | 
19 | 115 to 116 | CCc1ccc(OC(C)(C)C(=O)O)cc1OCCCc1cn(-c2ccc(C(F)(F)F)cn2)nc1C(C)C [Example 377, 2-[4-ethyl-3-(3-{3-isopropyl-1-[5-(trifluoromethyl)-2-pyridinyl]-1H-pyrazol-4-yl}propoxy)phenoxy]-2-methylpropanoic acid] |  |  | 
